# Assays:
# [1] = target: T1, TYK2 (JH2domain-pseudokinase) (Homo sapiens, UniProt P29597); experiment: TYK2 JH2 domain binding assay (KINOMEscan)
# T1 construct: TYK2 (JH2domain-pseudokinase)-tagged T7 phage strains were prepared in an E. coli host derived from the BL21 strain; made in house; host or cells: E. coli BL21-derived host (T7 phage) or HEK-293 cells
# Summary of the method: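 Competition binding of DNA-tagged TYK2 JH2 pseudokinase domain against immobilised affinity ligand, 1 h at room temperature in SeaBlock/PBS/Tween/DTT buffer with about 1% DMSO. Bound kinase eluted and quantified by qPCR. Kd taken from 11-point 3-fold series, usually 30,000 nM top, fitted by Levenberg-Marquardt nonlinear least squares.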
# [2] = system: STAT1/3 through TYK2/JAK1; experiment: IFNa induced STAT phosphorylation in HEK293 cells (SIE-bla reporter gene); type: cell-based; details: Homo sapiens, HEK293; HEK293T-sie-bla cells, IFNa at EC80, 4 hours; read-out: Inhibition of IFNa induced STAT phosphorylation HEK293 cells IC50
# Summary of the method: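 HEK293T cells carrying a SIE-driven β-lactamase reporter were co-treated with compound (1/5 serial dilution, 10 points, 0.1% DMSO final) and IFNa at EC80 for 4 h at 37°C. β-Lactamase substrate was added to stop the stimulation, followed by overnight dark incubation and FRET read. IC50 from a four-parameter logistic fit.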
# T1 sequence (P29597 589-875 limits assumed): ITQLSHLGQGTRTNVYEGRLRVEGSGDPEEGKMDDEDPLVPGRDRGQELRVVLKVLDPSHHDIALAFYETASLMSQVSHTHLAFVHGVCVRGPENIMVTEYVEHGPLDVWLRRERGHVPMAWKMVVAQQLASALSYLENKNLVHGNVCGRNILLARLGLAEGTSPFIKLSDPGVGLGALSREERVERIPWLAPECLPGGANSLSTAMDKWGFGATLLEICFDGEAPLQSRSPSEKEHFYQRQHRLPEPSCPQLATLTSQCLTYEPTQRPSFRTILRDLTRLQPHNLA
Kd [1] [nM],IC50 [2] [nM],Structure (SMILES)
< 0.2,10 to 100,"Cc1cc(Nc2cc(Nc3ccc(C(=O)N(C)C)cc3N(C)S(C)(=O)=O)ncn2)nc(C)n1 [Example 77, 4-[[6-[(2,6-dimethylpyrimidin-4-yl)amino]pyrimidin-4-yl]amino]-N,N-dimethyl-3-[methyl(methylsulfonyl)amino]benzamide]"
1 to 10,> 1000,"COc1cc(C(=O)N2CCCC2)ccc1Nc1cc(Nc2cc(C)nc(C)n2)ncn1 [Example 78, [4-[[6-[(2,6-dimethylpyrimidin-4-yl)amino]pyrimidin-4-yl]amino]-3-methoxy-phenyl]-pyrrolidin-1-yl-methanone]"
> 10,> 1000,"COc1cc(-c2ncc(F)cn2)ccc1Nc1cc(Nc2cc(C)nc(C)n2)ncn1 [Example 81, N4-(2,6-dimethylpyrimidin-4-yl)-N6-[4-(5-fluoropyrimidin-2-yl)-2-methoxyphenyl]pyrimidine-4,6-diamine]"
< 0.2,10 to 100,"COc1c(Nc2cc(Nc3cc(C)nc(C)n3)ncn2)ccc(-c2cnn(C)c2C)c1C [Example 84, N4-[4-(1,5-dimethylpyrazol-4-yl)-2-methoxy-3-methyl-phenyl]-N6-(2,6-dimethylpyrimidin-4-yl)pyrimidine-4,6-diamine]"
1 to 10,10 to 100,"COc1cc(-c2ncn(C)n2)ccc1Nc1cc(Nc2cc(C)nc(C)n2)ncn1 [Example 85, N6-(2,6-dimethylpyrimidin-4-yl)-N4-[2-methoxy-4-(1-methyl-1,2,4-triazol-3-yl)phenyl]pyrimidine-4,6-diamine]"
< 0.2,10 to 100,"Cc1cc(Nc2cc(Nc3ccc(-c4cn[nH]c4C)cc3N(C)S(C)(=O)=O)ncn2)nc(C)n1 [Example 89, N-[2-[[6-[(2,6-dimethylpyrimidin-4-yl)amino]pyrimidin-4-yl]amino]-5-(5-methyl-1H-pyrazol-4-yl)phenyl]-N-methyl-methanesulfonamide]"
< 0.2,< 10,"Cc1cc(Nc2cc(Nc3ccc(C4=CCCCO4)cc3N(C)S(C)(=O)=O)ncn2)nc(C)n1 [Example 92, N-[5-(3,4-dihydro-2H-pyran-6-yl)-2-[[6-[(2,6-dimethylpyrimidin-4-yl)amino]pyrimidin-4-yl]amino]phenyl]-N-methylmethanesulfonamide]"
1 to 10,100 to 1000,"Cc1cc(Nc2cc(Nc3c(F)cc(-c4cnn(C)c4C)cc3S(C)(=O)=O)ncn2)nc(C)n1 [Example 96, N4-[4-(1,5-dimethylpyrazol-4-yl)-2-fluoro-6-methylsulfonyl-phenyl]-N6-(2,6-dimethylpyrimidin-4-yl)pyrimidine-4,6-diamine]"
0.2 to 1,10 to 100,"Cc1cc(Nc2cc(Nc3ccc(-c4nc(C)nn4C)cc3N(C)S(C)(=O)=O)ncn2)nc(C)n1 [Example 99, N-[2-[[6-[(2,6-dimethylpyrimidin-4-yl)amino]pyrimidin-4-yl]amino]-5-(2,5-dimethyl-1,2,4-triazol-3-yl)phenyl]-N-methyl-methanesulfonamide]"
> 10,> 1000,"Cc1cc(C)c(N(C)S(C)(=O)=O)c(Nc2cc(Nc3cc(C)ncn3)ncn2)c1 [Example 100, N-[2,4-dimethyl-6-[[6-[(6-methylpyrimidin-4-yl)amino]pyrimidin-4-yl]amino]phenyl]-N-methylmethanesulfonamide]"
< 0.2,10 to 100,"Cc1cc(Nc2cc(Nc3ccccc3N(C)S(C)(=O)=O)ncn2)ncc1F [Example 101, N-[2-[[6-[(5-fluoro-4-methyl-2-pyridyl)amino]pyrimidin-4-yl]amino]phenyl]-N-methyl-methanesulfonamide]"
0.2 to 1,100 to 1000,"COc1c(Nc2cc(Nc3cc(C)ncn3)ncn2)cc(C)cc1-c1ncn(C)n1 [Example 104, 4-N-[2-methoxy-5-methyl-3-(1-methyl-1,2,4-triazol-3-yl)phenyl]-6-N-(6-methylpyrimidin-4-yl)pyrimidine-4,6-diamine]"
< 0.2,< 10,"Cc1cc(Nc2cc(Nc3ccc(C4CCCCO4)cc3N(C)S(C)(=O)=O)ncn2)nc(C)n1 (centres unmarked) [Example 107, N-[2-[[6-[(2,6-dimethylpyrimidin-4-yl)amino]pyrimidin-4-yl]amino]-5-tetrahydropyran-2-yl-phenyl]-N-methyl-methanesulfonamide]"
< 0.2,< 10,"C=Cc1ccc(Nc2cc(Nc3cc(C)nc(C)n3)ncn2)c(N(C)S(C)(=O)=O)c1 [Example 108, N-[2-[[6-[(2,6-dimethylpyrimidin-4-yl)amino]pyrimidin-4-yl]amino]-5-vinyl-phenyl]-N-methyl-methanesulfonamide]"

# Second part, the molecule before the results:
Structure (SMILES),Kd [1] [nM],IC50 [2] [nM]
"Cc1cc(Nc2cc(Nc3cccc(F)c3N(C)S(C)(=O)=O)ncn2)nc(C)n1 [Example 76, N-[2-[[6-[(2,6-dimethylpyrimidin-4-yl)amino]pyrimidin-4-yl]amino]-6-fluorophenyl]-N-methylmethanesulfonamide]",< 0.2,10 to 100
"COc1c(Nc2cc(Nc3cc(C)nc(C)n3)ncn2)ccc(-c2ncn(C)n2)c1C [Example 83, N6-(2,6-dimethylpyrimidin-4-yl)-N4-[2-methoxy-3-methyl-4-(1-methyl-1,2,4-triazol-3-yl)phenyl]pyrimidine-4,6-diamine]",1 to 10,> 1000
"Cc1cc(Nc2cc(Nc3ncc(-c4cc(C(F)(F)F)nn4C)cc3N(C)S(C)(=O)=O)ncn2)nc(C)n1 [Example 87, N-[2-[[6-[(2,6-dimethylpyrimidin-4-yl)amino]pyrimidin-4-yl]amino]-5-[2-methyl-5-(trifluoromethyl)pyrazol-3-yl]-3-pyridyl]-N-methyl-methanesulfonamide]",0.2 to 1,> 1000
"Cc1cc(Nc2cc(Nc3ncc(-c4c(C)nn(C)c4C)cc3N(C)S(C)(=O)=O)ncn2)nc(C)n1 [Example 88, N-[2-[[6-[(2,6-dimethylpyrimidin-4-yl)amino]pyrimidin-4-yl]amino]-5-(1,3,5-trimethylpyrazol-4-yl)-3-pyridyl]-N-methyl-methanesulfonamide]",< 0.2,10 to 100
"COc1cc(-c2cn(C)cn2)ccc1Nc1cc(Nc2cc(C)nc(C)n2)ncn1 [Example 90, N4-(2,6-dimethylpyrimidin-4-yl)-N6-[2-methoxy-4-(1-methylimidazol-4-yl)phenyl]pyrimidine-4,6-diamine]",1 to 10,> 1000
"COc1cc(-c2nccn2C)ccc1Nc1cc(Nc2cc(C)nc(C)n2)ncn1 [Example 91, N4-(2,6-dimethylpyrimidin-4-yl)-N6-[2-methoxy-4-(1-methylimidazol-2-yl)phenyl]pyrimidine-4,6-diamine]",1 to 10,100 to 1000
"COc1cc(-c2noc(C)n2)ccc1Nc1cc(Nc2cc(C)nc(C)n2)ncn1 [Example 93, N6-(2,6-dimethylpyrimidin-4-yl)-N4-[2-methoxy-4-(5-methyl-1,2,4-oxadiazol-3-yl)phenyl]pyrimidine-4,6-diamine]",1 to 10,> 1000
"Cc1cc(Nc2cc(Nc3ccc(C4=CCCOC4)cc3N(C)S(C)(=O)=O)ncn2)nc(C)n1 [Example 94, N-[5-(3,6-dihydro-2H-pyran-5-yl)-2-[[6-[(2,6-dimethylpyrimidin-4-yl)amino]pyrimidin-4-yl]amino]phenyl]-N-methyl-methanesulfonamide]",< 0.2,< 10
"Cc1cc(Nc2cc(Nc3ccc(C4=CCOCC4)cc3N(C)S(C)(=O)=O)ncn2)nc(C)n1 [Example 95, N-[5-(3,6-dihydro-2H-pyran-4-yl)-2-[[6-[(2,6-dimethylpyrimidin-4-yl)amino]pyrimidin-4-yl]amino]phenyl]-N-methyl-methanesulfonamide]",< 0.2,< 10
"Cc1cc(Nc2cc(Nc3ccc(-c4nc(C)n(C)n4)cc3N(C)S(C)(=O)=O)ncn2)nc(C)n1 [Example 97, N-[2-[[6-[(2,6-dimethylpyrimidin-4-yl)amino]pyrimidin-4-yl]amino]-5-(1,5-dimethyl-1,2,4-triazol-3-yl)phenyl]-N-methyl-methanesulfonamide]",< 0.2,10 to 100
"CN(c1ccccc1Nc1cc(Nc2ccc(C#N)cn2)ncn1)S(C)(=O)=O [Example 102, N-[2-[[6-[(5-cyano-2-pyridyl)amino]pyrimidin-4-yl]amino]phenyl]-N-methyl-methanesulfonamide]",0.2 to 1,10 to 100
"Cc1cc(Nc2cc(Nc3ccc(C4CCCOC4)cc3N(C)S(C)(=O)=O)ncn2)nc(C)n1 (centres unmarked) [Example 105, N-[2-[[6-[(2,6-dimethylpyrimidin-4-yl)amino]pyrimidin-4-yl]amino]-5-tetrahydropyran-3-yl-phenyl]-N-methyl-methanesulfonamide]",< 0.2,< 10
"Cc1cc(Nc2cc(Nc3ccc(C4CCOCC4)cc3N(C)S(C)(=O)=O)ncn2)nc(C)n1 [Example 106, N-[2-[[6-[(2,6-dimethylpyrimidin-4-yl)amino]pyrimidin-4-yl]amino]-5-tetrahydropyran-4-yl-phenyl]-N-methyl-methanesulfonamide]",< 0.2,10 to 100
"Cc1cc(Nc2cc(Nc3ccc(Cc4ccccc4)cc3N(C)S(C)(=O)=O)ncn2)nc(C)n1 [Example 109, N-[5-benzyl-2-[[6-[(2,6-dimethylpyrimidin-4-yl)amino]pyrimidin-4-yl]amino]phenyl]-N-methyl-methanesulfonamide]",< 0.2,< 10
